The values below come from patent US12084472B2 (Ardelyx, Inc., priority 2015, dated 2024).

The target in the first assay is T1, human TGR5 (Homo sapiens, UniProt Q8TDU6).
T1 construct: expressed in transfected cells; host or cells: HEK293
T1 sequence (Q8TDU6 1-330): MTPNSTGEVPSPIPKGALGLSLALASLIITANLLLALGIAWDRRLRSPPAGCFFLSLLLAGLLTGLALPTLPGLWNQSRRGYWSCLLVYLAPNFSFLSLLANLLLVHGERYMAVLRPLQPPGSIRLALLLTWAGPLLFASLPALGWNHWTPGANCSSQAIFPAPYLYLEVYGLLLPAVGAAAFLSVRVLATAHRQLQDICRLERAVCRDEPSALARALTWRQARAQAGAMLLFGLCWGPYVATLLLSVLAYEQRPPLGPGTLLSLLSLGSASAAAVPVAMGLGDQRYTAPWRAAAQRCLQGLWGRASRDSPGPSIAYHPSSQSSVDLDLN
In words: Cell-based TGR5 assay (cAMP generation, HTRF). Particulars: HEK293 cells stably transfected with human TGR5; cAMP by HTRF; 30 minutes at 37° C. In a few lines: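 First, compounds in 3-fold serial dilution were placed in HBSS with 10 mM HEPES pH 7.4 and 0.5 mM IBMX. Next, human TGR5-expressing HEK293 cells were added and incubated 30 min at 37° C. Finally, cAMP was detected by HTRF and pEC50 derived by logistic fitting.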
For `CN(CCCCNC(=O)NCCOCCOCCNC(=O)NCCCCNC(=O)NCCOCCOCCNC(=O)NCCCCN(C)S(=O)(=O)c1ccc(Cl)c(COC2(c3cnccc3-c3ccccc3OC3CC3)CC2)c1)S(=O)(=O)c1ccc(Cl)c(COC2(c3cnccc3-c3ccccc3OC3CC3)CC2)c1` [Compound I-736, 3-(4-[N-methyl[4-chloro-3-([1-[4-(2-cyclopropoxyphenyl)pyridin-3-yl]cyclopropoxy]methyl)benzene]sulfonamido]butyl)-1-[2-(2-[2-[([4-[([2-[2-(2-[[(4-[N-methyl[4-chloro-3-([1-[4-(2-cyclopropoxyphenyl)pyridin-3-yl]cyclopropoxy]methyl)benzene]sulfonamido]butyl)carbamoyl]amino]ethoxy)ethoxy]ethyl]carbamoyl)amino]butyl]carbamoyl)amino]ethoxy]ethoxy)ethyl]urea], the “pEC50 Human TGR5” value is “B (B is a pEC50 of 6 to 6.9)”.

On to `CN(CCCCNC(=O)NCCOCCOCCNC(=O)NCCOCCOCCNC(=O)NCCCCN(C)S(=O)(=O)c1ccc(Cl)c(COC2(c3cnccc3-c3ccccc3OC3CC3)CC2)c1)S(=O)(=O)c1ccc(Cl)c(COC2(c3cnccc3-c3ccccc3OC3CC3)CC2)c1` [Compound I-737, 3-(4-[N-methyl[4-chloro-3-([1-[4-(2-cyclopropoxyphenyl)pyridin-3-yl]cyclopropoxy]methyl)benzene]sulfonamido]butyl)-1-[2-(2-[2-[([2-[2-(2-[[(4-[N-methyl[4-chloro-3-([1-[4-(2-cyclopropoxyphenyl)pyridin-3-yl]cyclopropoxy]methyl)benzene]sulfonamido]butyl)carbamoyl]amino]ethoxy)ethoxy]ethyl]carbamoyl)amino]ethoxy]ethoxy)ethyl]urea], for which the “pEC50 Human TGR5” value is reported as “B (B is a pEC50 of 6 to 6.9)”.

Still in this assay, the particulars now being: HEK293 cells stably transfected with human TGR5; cAMP by HTRF; 30 minutes at 37° C.; read-out: pEC50 Human TGR5 (converted).
With `CC(=O)N(CCCCCSc1ccc(Cl)c(COC2(c3cnccc3-c3ccccc3OC3CC3)CC2)c1)C[C@H](O)[C@@H](O)[C@H](O)[C@H](O)CO` [Compound I-695, N-(5-{[4-chloro-3-({1-[4-(2-cyclopropoxyphenyl)pyridin-3-yl]cyclopropoxy}methyl)phenyl]sulfanyl}pentyl)-N-[(2S,3R,4R,5R)-2,3,4,5,6-pentahydroxyhexyl]acetamide], the EC50 was under 100 nM. On the same count and under the same terms, the result for `CCN(CCCCNC(=O)N[C@@H](CO)[C@@H](O)[C@H](O)[C@H](O)CO)S(=O)(=O)c1ccc(Cl)c(CNC2(c3cnccc3-c3ccccc3OC3CC3)CC2)c1` [Compound I-696, 1-[4-(N-ethyl[4-chloro-3-[([1-[4-(2-cyclopropoxyphenyl)pyridin-3-yl]cyclopropyl]amino)methyl]benzene]sulfonamido)butyl]-3-[(2S,3R,4S,5R)-1,3,4,5,6-pentahydroxyhexan-2-yl]urea] reads under 100 nM; that for `Oc1cc(Cl)c(CNC2(c3cnccc3-c3ccccc3OC3CC3)CC2)cc1Cl` [Compound I-700, 2,5-dichloro-4-[([1-[4-(2-cyclopropoxyphenyl)pyridin-3-yl]cyclopropyl]amino)methyl]phenol], under 100 nM; that for `Cc1ccc(CCCCNC(=O)NC[C@H](O)[C@@H](O)[C@H](O)[C@H](O)CO)nc1CNC1(c2cnccc2-c2ccccc2OC2CC2)CC1` [Compound I-705], 126 to 1000 nM. Same read-out and setting: the same measure for `Cc1ccc(CCCCNC(=O)N(C)C[C@H](O)[C@@H](O)[C@H](O)[C@H](O)CO)nc1CNC1(c2cnccc2-c2ccccc2OC2CC2)CC1` [Compound I-706]: 1260 to 10000 nM.

Consider `Cc1ccc(CCCCCNC(=O)NC[C@H](O)[C@@H](O)[C@H](O)[C@H](O)CO)nc1CNC1(c2cnccc2-c2ccccc2OC2CC2)CC1` [Compound I-707], for which the EC50 is 1260 to 10000 nM. Same read-out and setting: the same measure for `Cc1ccc(CCCCC(=O)N(C)C[C@H](O)[C@@H](O)[C@H](O)[C@H](O)CO)nc1COC1(c2cnccc2-c2ccccc2OC2CC2)CC1` [Compound I-709]: 1260 to 10000 nM; for `CC(C)(NCc1cc(Cl)ccc1Cl)c1cnccc1-c1ccccc1OC1CC1` [Compound I-723, 2-(4-(2-Cyclopropoxyphenyl)pyridin-3-yl)-N-(2,5-dichlorobenzyl)propan-2-amine]: under 100 nM.

Take `O=C(NC[C@H](O)[C@@H](O)[C@H](O)[C@H](O)CO)c1ccc(CCc2ccc(Cl)c(COC3(c4cnccc4-c4ccccc4OC4CC4)CC3)c2)cc1` [Compound I-724, 4-(4-Chloro-3-((1-(4-(2-cyclopropoxyphenyl)pyridin-3-yl)cyclopropoxy)methyl)phenethyl)-N-((2S,3R,4R,5R)-2,3,4,5,6-pentahydroxyhexyl)benzamide]: the EC50 is 126 to 1000 nM. Still for that read-out and setting: the result for `CN(C)C(=O)c1ccc(Cl)c(COC2(c3cnccc3-c3ccccc3OC3CC3)CC2)c1` [Compound I-725, 4-Chloro-3-((1-(4-(2-cyclopropoxyphenyl)pyridin-3-yl)cyclopropoxy)methyl)-N,N-dimethylbenzamide] reads 126 to 1000 nM. With `O=C(NCCCCCOc1ccc(Cl)c(COC2(c3cnccc3-c3ccccc3OC3CC3)CC2)c1)NC[C@H](O)[C@@H](O)[C@H](O)[C@H](O)CO` [Compound I-726, 1-(5-(4-chloro-3-((1-(4-(2-cyclopropoxyphenyl)pyridin-3-yl)cyclopropoxy)methyl)phenoxy)pentyl)-3-((2S,3R,4R,5R)-2,3,4,5,6-pentahydroxyhexyl)urea], the EC50 is 126 to 1000 nM.

For the compound `O=C(NC[C@H](O)[C@@H](O)[C@H](O)[C@H](O)CO)c1cccc(OCc2ccc(Cl)c(COC3(c4cnccc4-c4ccccc4OC4CC4)CC3)c2)c1` [Compound I-727, 3-((4-chloro-3-((1-(4-(2-cyclopropoxyphenyl)pyridin-3-yl)cyclopropoxy)methyl)benzyl)oxy)-N-((2S,3R,4R,5R)-2,3,4,5,6-pentahydroxyhexyl)benzamide], the EC50 was 126 to 1000 nM. On the same count and under the same terms, the result for `CC(C)N(CCCCNC(=O)[C@@H](O)[C@@H](O)[C@H](O)[C@@H](O)CO)S(=O)(=O)c1cc(COC2(c3cnccc3-c3ccccc3OC3CC3)CC2)c(Cl)cc1F` [Compound I-728, (2S,3S,4R,5S)-2,3,4,5,6-pentahydroxy-N-[4-[N-(propan-2-yl)[4-chloro-5-([1-[4-(2-cyclopropoxyphenyl)pyridin-3-yl]cyclopropoxy]methyl)-2-fluorobenzene]sulfonamido]butyl]hexanamide] reads under 100 nM; that for `CC(=O)NS(=O)(=O)c1ccc(Cl)c(COC2(c3cnccc3-c3ccccc3OC3CC3)CC2)c1` [Compound I-729, N-[[4-chloro-3-([1-[4-(2-cyclopropoxyphenyl)pyridin-3-yl]cyclopropoxy]methyl)benzene]sulfonyl]acetamide], 1260 to 10000 nM; that for `COc1cc(Cl)c(COC2(c3cnccc3-c3ccccc3OC3CC3)CC2)cc1S(=O)(=O)N(C)C` [Compound I-730, 4-chloro-5-([1-[4-(2-cyclopropoxyphenyl)pyridin-3-yl]cyclopropoxy]methyl)-2-methoxy-N,N-dimethylbenzene-1-sulfonamide], under 100 nM.

In the case of `CN(C)S(=O)(=O)c1cc(COC2(c3cnccc3-c3ccccc3OC3CC3)CC2)c(Cl)cc1O` [Compound I-731, 4-chloro-5-([1-[4-(2-cyclopropoxyphenyl)pyridin-3-yl]cyclopropoxy]methyl)-2-hydroxy-N,N-dimethylbenzene-1-sulfonamide], the EC50 was under 100 nM. For the compound `CC(=O)N1CCCN(S(=O)(=O)c2ccc(Cl)c(COC3(c4cnccc4-c4ccccc4OC4CC4)CC3)c2)CC1` [Compound I-732, 1-(4-[[4-chloro-3-([1-[4-(2-cyclopropoxyphenyl)pyridin-3-yl]cyclopropoxy]methyl)benzene]sulfonyl]-1,4-diazepan-1-yl)ethan-1-one], the EC50 was under 100 nM. With `COc1ccc2c(n1)CCN(S(=O)(=O)c1ccc(Cl)c(COC3(c4cnccc4-c4ccccc4OC4CC4)CC3)c1)C2` [Compound I-733, 6-[[4-chloro-3-([1-[4-(2-cyclopropoxyphenyl)pyridin-3-yl]cyclopropoxy]methyl)benzene]sulfonyl]-2-methoxy-5,6,7,8-tetrahydro-1,6-naphthyridine], the EC50 is under 100 nM. On to `O=S(=O)(c1ccc(Cl)c(COC2(c3cnccc3-c3ccccc3OC3CC3)CC2)c1)N1CCc2nc(O)ccc2C1` [Compound I-734, 6-[[4-chloro-3-([1-[4-(2-cyclopropoxyphenyl)pyridin-3-yl]cyclopropoxy]methyl)benzene]sulfonyl]-5,6,7,8-tetrahydro-1,6-naphthyridin-2-ol], for which the EC50 is under 100 nM. The same measure, in the same setting: the result for `[2H]C([2H])(NC(=O)N[C@@H](CO)[C@@H](O)[C@H](O)[C@H](O)CO)C([2H])([2H])C([2H])([2H])C([2H])([2H])N(C)S(=O)(=O)c1ccc(Cl)c(COC2(c3cnccc3-c3ccccc3OC3CC3)CC2)c1` [Compound I-735, 1-(4-[N-methyl[4-chloro-3-([1-[4-(2-cyclopropoxyphenyl)pyridin-3-yl]cyclopropoxy]methyl)benzene]sulfonamido](d8)butyl)-3-[(2S,3R,4S,5R)-1,3,4,5,6-pentahydroxyhexan-2-yl]urea] reads under 100 nM; that for `CCC(=O)OC[C@H](NC(=O)NCCCCN(C)S(=O)(=O)c1ccc(Cl)c(COC2(c3cnccc3-c3ccccc3OC3CC3)CC2)c1)[C@@H](OC(=O)CC)[C@H](OC(=O)CC)[C@@H](COC(=O)CC)OC(=O)CC` [Compound I-738, (2R,3S,4R,5S)-5-[[(4-[N-methyl[4-chloro-3-([1-[4-(2-cyclopropoxyphenyl)pyridin-3-yl]cyclopropoxy]methyl)benzene]sulfonamido]butyl)carbamoyl]amino]-1,2,4,6-tetrakis(propanoyloxy)hexan-3-yl propanoate], 126 to 1000 nM.
